These results are taken from patent US8802638B1, “Flavonoid treatment of glycogen synthase kinase-based disease” (University of South Florida, priority 2007, dated 2014).

The target in one experiment is T1, γ-secretase (Mus musculus, UniProt P49769).
T1 construct: endogenous in cells; host or cells: SweAPP N2a cells (lysates of treated cells)
Description: fluorometric assay for γ-secretase cleavage activity in SweAPP N2a cell lysates. The format is cell-based, murine. To be noted: relative to untreated control. The method, then: Cultured cells or mouse brain were lysed in ice-cold lysis buffer described above, and an aliquot corresponding to 50 μg of total protein was electrophoretically separated using 12% Tris-HCl or 16.5% Tris-tricine gels. Electrophoresed proteins were then transferred to PVDF membranes, washed in dH2O, and blocked for 1 hr at ambient temperature in Tris-buffered saline (TBS; Bio-Rad) containing 5% (w/v) non-fat dry milk. After blocking, membranes were hybridized for 1 hr at ambient temperature with various primary antibodies. Membranes were then washed 3× for 5 min each in dH2O and incubated for 1 hr at ambient temperature with the appropriate HRP-conjugated secondary antibody (1:1,000). Antibodies were obtained against the amino-terminus and carboxyl-terminus of PS1 (Chemicon, Temecula, Calif.), amino-terminus and carboxyl-terminus of APP (22C11), actin (Roche, Basel, Switzerland), Aβ (6E10, 48G) (Signet Laboratories, Dedham, Mass.), phosphor-GSK3α (ser^21, clone BK202) (Upstate, Lake Placid, N.Y.), phospho-GSK3α/β (pTyr^279/216) (Sigma), phospho-GSK-3β (Ser^9) (Sigma) and total GSK-3α/β (Sigma). […] Densitometric analysis was done as previously described using a FluorS Multiimager with Quantity One™ software (39). […] Antibodies used for Western blot included the APP-carboxyl-terminal antibody (1:50)), amino-terminal APP antibody (clone 22C11), or 6E10 (1:1,000), or actin antibody (1:1,500; as an internal reference control). γ-secretase activity was quantified in cell lysates using available kits based on secretase-specific peptides conjugated to fluorogenic reporter molecules.
Due to the implications on γ-secretase activity, luteolin's effect on SweAPP N2a cells was analyzed using a fluorometric assay for γ-cleavage.
Cultured cells or mouse brain were lysed in ice-cold lysis buffer described above, and an aliquot corresponding to 50 μg of total protein was electrophoretically separated using 12% Tris-HCl or 16.5% Tris-tricine gels. […] Densitometric analysis was done as previously described using a FluorS Multiimager with Quantity One™ software. […]

The next experiment deals with PS1-APP association. Description: PS1-APP association, immunoprecipitation/Western blot in SweAPP N2a cells. The class given is cell-based, murine. As to conditions: 20 μM for 4 hrs or siRNA transfection. The method, then: Cultured cells or mouse brain were lysed in ice-cold lysis buffer described above, and an aliquot corresponding to 50 μg of total protein was electrophoretically separated using 12% Tris-HCl or 16.5% Tris-tricine gels. Electrophoresed proteins were then transferred to PVDF membranes, washed in dH2O, and blocked for 1 hr at ambient temperature in Tris-buffered saline (TBS; Bio-Rad) containing 5% (w/v) non-fat dry milk. After blocking, membranes were hybridized for 1 hr at ambient temperature with various primary antibodies. Membranes were then washed 3× for 5 min each in dH2O and incubated for 1 hr at ambient temperature with the appropriate HRP-conjugated secondary antibody (1:1,000). All antibodies were diluted in TBS containing 5% (w/v) of non-fat dry milk. Blots were developed using the luminol reagent (Pierce Biotechnology). Densitometric analysis was done as previously described using a FluorS Multiimager with Quantity One™ software. Immunoprecipitation was performed for detection of sAPP-α, sAPP-β and Aβ by incubating 200 μg of total protein of each sample with various sequential combinations of 6E10 (1:100) and/or 22C11 (1:100) antibodies overnight with gentle rocking at 4° C., and 10 μL of 50% protein A-Sepharose beads were then added to the sample (1:10; Sigma) prior to gentle rocking for an additional 4 hrs at 4° C. Following washes with 1× cell lysis buffer, samples were subjected to Western blot as described above. Antibodies used for Western blot included the APP-carboxyl-terminal antibody (1:50)), amino-terminal APP antibody (clone 22C11), or 6E10 (1:1,000), or actin antibody (1:1,500; as an internal reference control). γ-secretase activity was quantified in cell lysates using available kits (R&D Systems, Minneapolis, Minn.), based on secretase-specific peptides conjugated to fluorogenic reporter molecules.
Cell lysates of luteolin-treated SweAPP N2a cells were immunoprecipitated by PS1 antibody and probed for APP to clarify how phospho-PS1 CTF isoforms may regulate γ-secretase activity, seen in FIGS. 26(A) through 27(B). As illustrated in FIGS. 26(A) and (B), the APP-PS1 association is disrupted by luteolin, SB-415286 treatment, and GSK-3α siRNA. […] Thus, GSK-3α or, more specifically, downstream phosphorylation of the PS1 CTF plays an essential role in regulating the association of γ-secretase complex with its APP substrate.
(In general: Immunoblotting shows a protein as a band on a membrane.)

The structures appear in SMILES notation.

`O=c1cc(-c2ccc(O)c(O)c2)oc2cc(O)cc(O)c12` [luteolin]: on γ-secretase, the γ-secretase cleavage activity result is “lowered γ-secretase cleavage activity in both a dose and time dependent fashion”. In the experiment with PS1-APP association (6E10 Western blot of lysates), the “ratio of APP to actin (full-length APP levels)” value is “no significant changes”. Further, the APP-PS1 association result with PS1-APP association (IP with anti-PS1 CTF, 6E10 blot) is recorded as “disrupted”.
